Reference: US11787780B2 (CORCEPT THERAPEUTICS INCORPORATED, priority 2020, dated 2023)

Target: glucocorticoid receptor (GR) recombinant ligand binding domain (LBD) (Homo sapiens (Human), UniProt P04150)
Assay: GR binding fluorescence polarisation (FP) assay
Conditions: displacement of fluorescently tagged ligand
Procedure: Binding of test compounds to the glucocorticoid receptor (GR) is determined using a fluorescence polarisation (FP) assay utilising a recombinant ligand binding domain (LBD) of GR. The test compounds are assessed by their ability to displace a fluorescently tagged ligand and detection of the resulting decrease in fluorescence polarisation.

Chain of glucocorticoid receptor (GR) recombinant ligand binding domain (LBD) (P04150 524-758): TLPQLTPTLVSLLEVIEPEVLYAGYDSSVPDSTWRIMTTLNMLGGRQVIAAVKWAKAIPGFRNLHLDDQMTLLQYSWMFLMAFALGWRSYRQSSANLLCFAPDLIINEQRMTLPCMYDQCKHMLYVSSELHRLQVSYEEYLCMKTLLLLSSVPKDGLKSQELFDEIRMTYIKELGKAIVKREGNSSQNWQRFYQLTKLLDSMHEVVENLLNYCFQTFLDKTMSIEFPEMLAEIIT

Molecule | IC50
CCCn1cc(S(=O)(=O)N[C@H]2CCN(c3cc4cnn(-c5ccc(F)cc5)c4cc3C)C2)cn1 [Example 4, (S)—N-(1-(1-(4-fluorophenyl)-6-methyl-1H-indazol-5-yl)pyrrolidin-3-yl)-1-propyl-1H-pyrazole-4-sulfonamide] | 0.002 µM
CCCn1cc(S(=O)(=O)NC2CCN(c3cc4cnn(-c5ccc(F)cc5)c4cc3C)CC2)cn1 [Example 107] | 0.003 µM
C[C@@H]1CN(S(=O)(=O)C2CCCC2)CCN1c1ccc2c(cnn2-c2ccc(F)cc2)c1 [Example 35] | 1.81 µM
CCCS(=O)(=O)N1CCN(c2ccc3c(cnn3-c3ccc(F)cc3)c2)C[C@H]1C [Example 104, (R)-1-(4-fluorophenyl)-5-(3-methyl-4-(propylsulfonyl)piperazin-1-yl)-1H-indazole] | 0.27 µM
CCCn1cc(S(=O)(=O)N2CCC(C(=O)OCC)(c3ccc4c(cnn4-c4ccc(F)cc4)c3)CC2)cn1 [Example 21, Ethyl 4-(1-(4-fluorophenyl)-1H-indazol-5-yl)-1-((1-propyl-1H-pyrazol-4-yl)sulfonyl)piperidine-4-carboxylate] | 0.884 µM
CCCn1cc(S(=O)(=O)N2CC=C(c3ccc4c(cnn4-c4ccc(F)cc4)c3)CC2)cn1 [Example 137] | 0.308 µM
1-(4-fluorophenyl)-5-(4-(methoxymethyl)-1-((1-propyl-1H-pyrazol-4-yl)sulfonyl)piperidin-4-yl)-1H-indazole [Example 23] | 1.3 µM
CCCn1cc(S(=O)(=O)N2CC[C@@H](c3ccc4c(cnn4-c4ccc(F)cc4)c3)C[C@H]2C)cn1 [Example 9, 1-(4-fluorophenyl)-5-((2R,4R)-2-methyl-1-((1-propyl-1H-pyrazol-4-yl)sulfonyl)piperidin-4-yl)-1H-indazole] | 0.527 µM
CCCn1cc(S(=O)(=O)N2CCN(c3ccc4c(cnn4-c4ccc(F)cc4)c3)CC23CCC3)cn1 [Example 66] | 0.429 µM
CCCn1cc(S(=O)(=O)N2CCN(c3cc4cnn(-c5ccc(F)cc5)c4cc3C)C(=O)C2)cn1 [Example 209, 1-(1-(4-fluorophenyl)-6-methyl-1H-indazol-5-yl)-4-((1-propyl-1H-pyrazol-4-yl)sulfonyl)piperazin-2-one] | 3.9 µM
C[C@H]1CN(c2ccc3c(cnn3-c3ccc(F)cc3)c2)CCN1S(=O)(=O)c1cnn(C)c1 [Example 38] | 1.95 µM
CCCn1cc(S(=O)(=O)N2CC=C(c3cc4cnn(-c5ccc(F)cc5)c4cc3C)C[C@H]2C)cn1 [Example 11, (R)-1-(4-fluorophenyl)-6-methyl-5-(2-methyl-1-((1-propyl-1H-pyrazol-4-yl)sulfonyl)-1,2,3,6-tetrahydropyridin-4-yl)-1H-indazole] | 0.258 µM
CS(=O)(=O)N1CCC(c2ccc3c(cnn3-c3ccc(F)cc3)c2)CC1 [Example 134] | 3.38 µM
Cc1cc2c(cnn2-c2ccc(F)cc2)cc1N1CC[C@H](NS(C)(=O)=O)C1 [Example 108] | 0.007 µM
Cc1cc2c(cnn2-c2ccc(F)cc2)cc1N1CC[C@H](N(C)S(=O)(=O)c2cnn(C)c2)C1 [Example 114] | 0.304 µM
CCCn1cc(S(=O)(=O)N(C)C2CCCN(c3cc4cnn(-c5ccc(F)cc5)c4cc3C)C2)cn1 (stereo not drawn) [Example 128] | 0.59 µM
Cc1cc2c(cnn2-c2ccc(F)cc2)cc1N1CCCC(N(C)S(=O)(=O)c2cnn(C)c2)C1 (stereo not drawn) [Example 127] | 0.174 µM
Cc1cc2c(cnn2-c2ccc(F)cc2)cc1C1(COCc2ccccc2)CCN(S(=O)(=O)c2cnn(C)c2)C1 (stereo not drawn) [Example 341, 5-(3-((benzyloxy)methyl)-1-((1-methyl-1H-pyrazol-4-yl)sulfonyl)pyrrolidin-3-yl)-1-(4-fluorophenyl)-6-methyl-1H-indazole] | 0.39 µM
CCCn1cc(S(=O)(=O)N2CCN(c3ccc4c(cnn4-c4ccc(F)cc4)c3C)C[C@H]2C)cn1 [Example 49] | 8.22 µM

Molecule | IC50
CCCn1cc(S(=O)(=O)N2CCN(c3cc4cnn(-c5ccc(OC)cc5)c4cc3C)C[C@H]2C)cn1 [Example 75] | 0.325 µM
CCCn1cc(S(=O)(=O)N(C)[C@H]2CCCN(c3cc4cnn(-c5ccc(F)cc5)c4cc3C)C2)cn1 [Example 125] | 0.208 µM
C[C@@H]1CN(c2ccc3c(cnn3-c3ccc(F)cc3)c2)CCN1S(=O)(=O)c1cnn(C2CCOCC2)c1 [Example 53] | 0.244 µM
CCCn1cc(S(=O)(=O)N2CCN(c3ccc4c(cnn4-c4ccc(F)cc4)c3)C[C@H]2C)c(C)n1 [Example 57] | 0.249 µM
CC(C)C[C@@H]1CN(c2ccc3c(cnn3-c3ccc(F)cc3)c2)CCN1S(=O)(=O)c1cnn(C)c1 [Example 42] | 2.31 µM
CC1(C)CN(c2ccc3c(cnn3-c3ccc(F)cc3)c2)CCN1S(C)(=O)=O [Example 45] | 0.562 µM
C[C@@H]1CN(S(C)(=O)=O)[C@@H](C)CN1c1ccc2c(cnn2-c2ccc(F)cc2)c1 [Example 51] | 0.36 µM
Cc1cc2c(cnn2-c2ccc(F)cc2)cc1N1CC[C@@H](NS(C)(=O)=O)C1 [Example 109] | 0.048 µM
CC(=O)N1CCN(c2ccc3c(cnn3-c3ccc(F)cc3)c2)C[C@H]1CC(C)C [Example 99] | 0.898 µM
CC(C)Cn1cc(S(=O)(=O)N2CCN(c3ccc4c(cnn4-c4ccc(F)cc4)c3)C[C@H]2C)cn1 [Example 64] | 0.151 µM
Cc1cc2c(cnn2-c2ccc(F)cc2)cc1N1CCC(N(C)S(C)(=O)=O)CC1 [Example 116] | 0.072 µM
CCCn1cc(S(=O)(=O)N(C)[C@H]2CCN(c3cc4cnn(-c5ccc(F)cc5)c4cc3C)C2)cn1 [Example 5, (S)—N-(1-(1-(4-fluorophenyl)-6-methyl-1H-indazol-5-yl)pyrrolidin-3-yl)-N-methyl-1-propyl-1H-pyrazole-4-sulfonamide] | 0.126 µM
Cn1cc(S(=O)(=O)N2CCN(c3ccc4c(cnn4-c4ccc(F)cc4)c3)[C@H](Cc3ccccc3)C2)cn1 [Example 34] | 1.1 µM
Cc1cc2c(cnn2-c2ccc(F)cc2)cc1N1CC[C@@H](N(C)S(=O)(=O)c2cnn(C)c2)C1 [Example 115] | 0.021 µM
C[C@@H]1CN(c2ccc3c(cnn3-c3ccc(F)cc3)c2)CCN1S(=O)(=O)c1ccc(F)c(F)c1 [Example 40] | 0.546 µM
CCCn1cc(S(=O)(=O)N2CCN(c3cc4cnn(-c5ccc(OC)nc5)c4cc3C)C[C@H]2C)cn1 [Example 77] | 1.04 µM
Cc1cc2c(cnn2-c2ccc(F)cc2)cc1N1CCN(C(=O)Nc2ccccc2)C2(CC2)C1 [Example 102] | 0.267 µM
CCCn1cc(S(=O)(=O)N2CCN(c3cnc4c(cnn4-c4ccc(F)cc4)c3)CC23CC3)cn1 [Example 71] | 0.238 µM
CCCn1cc(S(=O)(=O)N2CCN(c3ccc4c(cnn4-c4ccc(F)cc4)c3)C3(CC3)C2)cn1 [Example 3, 1-(4-fluorophenyl)-5-(7-((1-propyl-1H-pyrazol-4-yl)sulfonyl)-4,7-diazaspiro[2.5]octan-4-yl)-1H-indazole] | 0.206 µM

Molecule | IC50
CCCn1cc(S(=O)(=O)N2C[C@H](C)N(c3ccc4c(cnn4-c4ccc(F)cc4)c3)C[C@H]2C)cn1 [Example 55] | 0.021 µM
CS(=O)(=O)N1C[C@@H]2C[C@H]1CN2c1ccc2c(cnn2-c2ccc(F)cc2)c1 [Example 47] | 1.41 µM
Cc1cc2c(cnn2-c2ccc(F)cc2)cc1N1CCC(NS(C)(=O)=O)CC1 [Example 106] | 0.009 µM
CCCn1cc(S(=O)(=O)N2CC[C@H](c3cc4cnn(-c5ccc(F)cc5)c4cc3C)C[C@H]2C)cn1 [Example 13, 1-(4-fluorophenyl)-6-methyl-5-((2R,4S)-2-methyl-1-((1-propyl-1H-pyrazol-4-yl)sulfonyl)piperidin-4-yl)-1H-indazole] | 0.082 µM
CCCn1cc(S(=O)(=O)N2CCN(c3cc4nnn(-c5ccc(F)cc5)c4cc3C)CC23CC3)cn1 [Example 74] | 0.066 µM
Cc1cc2c(cnn2-c2ccc(F)cc2)cc1N1CCCC(N(C)S(C)(=O)=O)C1 (stereo not drawn) [Example 126] | 0.19 µM
CC(=O)N1CCN(c2ccc3c(cnn3-c3ccc(F)cc3)c2)C[C@H]1Cc1ccccc1 [Example 98] | 0.749 µM
COC[C@@H]1CN(c2ccc3c(cnn3-c3ccc(F)cc3)c2)CCN1S(=O)(=O)c1cnn(CC2CC2)c1 [Example 15, (S)-5-(4-((1-(cyclopropylmethyl)-1H-pyrazol-4-yl)sulfonyl)-3-(methoxymethyl)piperazin-1-yl)-1-(4-fluorophenyl)-1H-indazole] | 0.455 µM
CC(=O)N1CCN(c2ccc3c(cnn3-c3ccc(F)cc3)c2)[C@H](C)C1 [Example 97] | 1.81 µM
CCCn1cc(S(=O)(=O)N2CCN(c3ccc4c(cnn4-c4ccc(F)cc4)n3)CC23CC3)cn1 [Example 72] | 3.75 µM
Cc1cc2c(cnn2-c2ccc(F)cc2)cc1C1=CCN(S(C)(=O)=O)CC1 [Example 138] | 0.101 µM
CCCn1cc(S(=O)(=O)N(C)C2CCN(c3cc4cnn(-c5ccc(F)cc5)c4cc3C)CC2)cn1 [Example 117] | 0.057 µM
Cc1cc2c(cnn2-c2ccc(F)cc2)cc1N1CC[C@@H](N(C)S(C)(=O)=O)C1 [Example 113] | 0.052 µM
CCCn1cc(S(=O)(=O)N2CCN(c3cc4cnn(-c5ccc(F)cc5)c4cn3)CC23CC3)cn1 [Example 69] | 1.16 µM
Cc1nn(C2CCCC2)cc1S(=O)(=O)N1CCN(c2ccc3c(cnn3-c3ccc(F)cc3)c2)C[C@H]1C [Example 54] | 0.142 µM
CCCn1cc(S(=O)(=O)N2CCC(C(=O)N3CCCC3)(c3cc4cnn(-c5ccc(F)cc5)c4cc3C)CC2)cn1 [Example 22, (4-(1-(4-fluorophenyl)-6-methyl-1H-indazol-5-yl)-1-((1-propyl-1H-pyrazol-4-yl)sulfonyl)piperidin-4-yl)(pyrrolidin-1-yl)methanone] | 0.857 µM
Cn1cc(S(=O)(=O)N2CCN(c3ccc4c(cnn4-c4ccc(F)cc4)c3)C[C@H]2Cc2ccccc2)cn1 [Example 41] | 0.937 µM
Cc1cc2c(cnn2-c2ccc(F)cc2)cc1N1CCN(S(C)(=O)=O)CC1=O [Example 7, 1-(1-(4-fluorophenyl)-6-methyl-1H-indazol-5-yl)-4-(methylsulfonyl)piperazin-2-one] | 6.11 µM
C[C@@H]1CN(c2ccc3c(cnn3-c3ccc(F)cc3)c2)CCN1S(=O)(=O)c1cnn(C)c1 [Example 37] | 0.396 µM
